Source: US8575157B2, “Cyclic inhibitors of 11beta-hydroxysteroid dehydrogenase 1” (Vitae Pharmaceuticals, Inc., priority 2010, dated 2013)
Read-outs that look alike come from different tables or passages of the source.

Key:
Assay type in all cases: in vitro ADME
[1] = target: human recombinant cytochrome P450 3A4 (Homo sapiens (Human), UniProt P08684); assay: CYP3A4 inhibition, Biological Test Example 6
[2] = target: human recombinant cytochrome P450 2C19 (Homo sapiens (Human), UniProt P33261); assay: CYP2C19 inhibition, Biological Test Example 8; conditions: read-out: Biological Test Example 8 CYP2C19, IC50
Sequence of human recombinant cytochrome P450 2C19 (P33261 whole entry): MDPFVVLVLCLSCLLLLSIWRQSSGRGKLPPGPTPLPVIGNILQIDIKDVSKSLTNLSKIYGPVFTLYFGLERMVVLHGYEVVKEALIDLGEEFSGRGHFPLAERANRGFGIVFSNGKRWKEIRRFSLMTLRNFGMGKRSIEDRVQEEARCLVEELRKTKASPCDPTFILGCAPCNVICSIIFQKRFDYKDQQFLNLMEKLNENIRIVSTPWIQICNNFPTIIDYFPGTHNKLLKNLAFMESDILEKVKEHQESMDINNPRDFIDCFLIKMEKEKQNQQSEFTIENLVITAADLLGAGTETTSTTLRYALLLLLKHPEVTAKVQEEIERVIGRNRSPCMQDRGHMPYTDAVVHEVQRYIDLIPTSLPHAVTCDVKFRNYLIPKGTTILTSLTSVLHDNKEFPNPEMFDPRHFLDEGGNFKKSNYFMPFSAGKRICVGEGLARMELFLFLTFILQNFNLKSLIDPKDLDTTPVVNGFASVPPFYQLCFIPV

[3] = target: human recombinant cytochrome P450 2C9 (Homo sapiens (Human), UniProt P11712); assay: CYP2C9 inhibition ([O-methyl-14C]-Naproxen), Biological Test Example 7
Sequence of human recombinant cytochrome P450 2C9 (P11712 whole entry): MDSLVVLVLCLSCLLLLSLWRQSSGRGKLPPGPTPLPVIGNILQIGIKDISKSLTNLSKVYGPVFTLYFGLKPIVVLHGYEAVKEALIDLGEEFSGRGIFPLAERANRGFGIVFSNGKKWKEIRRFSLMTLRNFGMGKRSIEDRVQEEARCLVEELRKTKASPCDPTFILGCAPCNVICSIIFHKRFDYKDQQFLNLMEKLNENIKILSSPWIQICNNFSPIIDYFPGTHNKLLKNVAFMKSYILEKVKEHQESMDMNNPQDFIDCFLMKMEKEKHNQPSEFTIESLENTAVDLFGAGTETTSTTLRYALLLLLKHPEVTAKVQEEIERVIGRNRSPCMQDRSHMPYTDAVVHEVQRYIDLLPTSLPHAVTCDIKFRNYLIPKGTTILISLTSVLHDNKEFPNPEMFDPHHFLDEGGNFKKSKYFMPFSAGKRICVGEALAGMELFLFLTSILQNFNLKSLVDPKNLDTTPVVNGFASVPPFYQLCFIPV

Sequence of human recombinant cytochrome P450 3A4 (P08684 whole entry): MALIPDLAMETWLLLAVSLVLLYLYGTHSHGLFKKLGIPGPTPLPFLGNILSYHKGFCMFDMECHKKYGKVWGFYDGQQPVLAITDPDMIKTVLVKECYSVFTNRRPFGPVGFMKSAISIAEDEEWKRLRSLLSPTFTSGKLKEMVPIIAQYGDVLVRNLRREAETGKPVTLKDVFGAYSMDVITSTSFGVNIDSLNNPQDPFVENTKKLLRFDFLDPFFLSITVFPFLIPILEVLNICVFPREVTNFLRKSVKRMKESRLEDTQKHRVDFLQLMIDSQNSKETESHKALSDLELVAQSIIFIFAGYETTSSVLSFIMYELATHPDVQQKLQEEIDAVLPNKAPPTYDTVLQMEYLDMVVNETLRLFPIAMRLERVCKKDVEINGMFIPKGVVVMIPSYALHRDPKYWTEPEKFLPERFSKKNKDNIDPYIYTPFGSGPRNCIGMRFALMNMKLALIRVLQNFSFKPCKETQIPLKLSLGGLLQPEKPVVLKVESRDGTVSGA

With `C[C@@H](c1ccc(-c2ccn(C3CC3)c(=O)c2)cc1)N1CC[C@](CC(C)(C)O)(c2ccccc2F)OC1=O` [Example 88, (S)-3-((S)-1-(4-(1-cyclopropyl-2-oxo-1,2-dihydropyridin-4-yl)phenyl)ethyl)-6-(2-fluorophenyl)-6-(2-hydroxy-2-methylpropyl)-1,3-oxazinan-2-one] as the molecule, how does the IC50 [1] read?
Its IC50 is > 50 µM.

And the IC50 [2]?
Its IC50 is > 50 µM.

With `CCn1cc(-c2ccc([C@H](C)N3CC[C@](CC(C)(C)O)(c4ccc(F)cc4)OC3=O)cc2)ccc1=O` [Example 62, (S)-3-((S)-1-(4-(1-ethyl-6-oxo-1,6-dihydropyridin-3-yl)phenyl)ethyl)-6-(4-fluorophenyl)-6-(2-hydroxy-2-methylpropyl)-1,3-oxazinan-2-one] as the molecule, how does the IC50 [3] read?
The IC50 was > 50 µM.

How did the IC50 [2] turn out when `C[C@@H](c1ccc(-c2ccc(=O)n(C)c2)cc1)N1CC[C@](CC(C)(C)C#N)(c2ccc(F)cc2)OC1=O` [Example 69, 3-((R)-6-(4-fluorophenyl)-3-((S)-1-(4-(1-methyl-6-oxo-1,6-dihydropyridin-3-yl)phenyl)ethyl)-2-oxo-1,3-oxazinan-6-yl)-2,2-dimethylpropanenitrile] was run?
Its IC50 is > 50 µM.

How did the IC50 [1] turn out when `C[C@@H](c1ccc(-c2ccn(C)c(=O)c2)cc1)N1CC[C@](CC(C)(C)O)(c2ccccc2F)OC1=O` [Example 26, (S)-6-(2-fluorophenyl)-6-(2-hydroxy-2-methylpropyl)-3-((S)-1-(4-(1-methyl-2-oxo-1,2-dihydropyridin-4-yl)phenyl)ethyl)-1,3-oxazinan-2-one] was run?
The IC50 was > 50 µM.

And the IC50 [2]?
Its IC50 is > 50 µM.

And the IC50 [3]?
Its IC50 is > 50 µM.

For `CC(C)n1cc(-c2ccc([C@H](C)N3CC[C@](CC(C)(C)O)(c4ccccc4)OC3=O)cc2)ccc1=O` [Example 59, (S)-6-(2-hydroxy-2-methylpropyl)-3-((S)-1-(4-(1-isopropyl-6-oxo-1,6-dihydropyridin-3-yl)phenyl)ethyl)-6-phenyl-1,3-oxazinan-2-one], which IC50 [1] is on record?
The IC50 was > 50 µM.

`Cc1cc(-c2ccc([C@H](C)N3CC[C@](CC(C)(C)O)(c4ccccc4)OC3=O)cc2)cc(=O)n1C` [Example 64, (S)-3-((S)-1-(4-(1,6-dimethyl-2-oxo-1,2-dihydropyridin-4-yl)phenyl)ethyl)-6-(2-hydroxy-2-methylpropyl)-6-phenyl-1,3-oxazinan-2-one] was tested. Which IC50 [1] did it give?
The IC50 was > 50 µM.

For `Cc1cc(-c2ccc([C@H](C)N3CC[C@](CC(C)(C)O)(c4ccccc4)OC3=O)cc2)cn(C)c1=O` [Example 61, (S)-3-((S)-1-(4-(1,5-dimethyl-6-oxo-1,6-dihydropyridin-3-yl)phenyl)ethyl)-6-(2-hydroxy-2-methylpropyl)-6-phenyl-1,3-oxazinan-2-one], which IC50 [1] is on record?
Its IC50 is > 50 µM.

For `C[C@@H](c1ccc(-c2ccc(=O)n(C)c2)cc1)N1CC[C@](CCCO)(c2ccccc2)OC1=O` [Example 30, (R)-6-(3-hydroxypropyl)-3-((S)-1-(4-(1-methyl-6-oxo-1,6-dihydropyridin-3-yl)phenyl)ethyl)-6-phenyl-1,3-oxazinan-2-one], which IC50 [1] is on record?
Its IC50 is > 50 µM.

With `CC[C@@H](c1ccc(-c2ccc(=O)n(C)c2)cc1)N1CC[C@](CCO)(c2ccccc2)OC1=O` [Example 40, (S)-6-(2-hydroxyethyl)-3-((S)-1-(4-(1-methyl-6-oxo-1,6-dihydropyridin-3-yl)phenyl)propyl)-6-phenyl-1,3-oxazinan-2-one] as the molecule, how does the IC50 [1] read?
The IC50 was > 50 µM.

What about the IC50 [3] of the same molecule?
The IC50 was > 50 µM.

How did the IC50 [3] turn out when `CCn1cc(-c2ccc([C@H](C)N3CC[C@](CC(C)(C)O)(c4ccccc4)OC3=O)cc2)cc(C)c1=O` [Example 70, (S)-3-((S)-1-(4-(1-ethyl-5-methyl-6-oxo-1,6-dihydropyridin-3-yl)phenyl)ethyl)-6-(2-hydroxy-2-methylpropyl)-6-phenyl-1,3-oxazinan-2-one] was run?
The IC50 was > 50 µM.
